The source of these data is patent publication US20240325458A1, “COMPOSITION FOR PRODUCING BILE ACIDS” (priority 2020, published 2024).

The subject of test [1] is C. difficile 630. In words: Bacterial growth inhibition assay (OD 600). In kind it is cell-based, Clostridioides difficile. An excerpt:
(§1) Clostridioides difficile strain 630 (ATCC BAA-1382), Clostridioides difficile VPI 10463 (ATCC 43255), vancomycin-resistant Enterococcus faecium (ATCC 700221), Streptococcus dysgalactiae subsp. equisimilis (ATCC 12394), carbapenemase-resistant Klebsiella pneumoniae (ATCC BAA-1705), and Salmonella enterica subsp. enterica (ATCC 14028) were purchased from the American Type Culture Collection (ATCC).
(§2) From fresh colonies grown on BHK blood agar plates (Kyokuto), a primary suspension adjusted to OD 600 of 0.63 was prepared in WCA medium. Subsequently, the secondary suspension was prepared by diluting 100 μL of primary suspension into a total of 2.4 mL of medium. 10 μL of secondary suspension was inoculated to a total of 200 μL of medium containing varying concentrations ([…], 6.25, 12.5, 25, and 50 μM) of bile acids; DCA, LCA, 3-oxoLCA, 3-oxoalloLCA, isoLCA, alloLCA, and isoalloLCA. The growth of bacteria was monitored every 0.5-1 hr by OD 600 measurement using a microplate reader (Sunrise Thermo, Tecan) set at 37° C. with a 60 see shaking before each time point. For determining the minimal inhibitory concentration, 10 μL of secondary suspension was inoculated into a total of 200 μL of medium containing 0.25 to 50 μM of isoalloLCA.
Therefore, next, it was investigated whether 3-oxoLCA and isoalloLCA had the ability to inhibit the growth of C. difficile. […]

Another test deals with C. difficile VPI10463. In words: Bacterial growth inhibition assay (OD 600). The following applies: toxin-producing strain. In kind it is cell-based, Clostridioides difficile.
Source text: as §1, §2

The test system of test [2] is vancomycin-resistant Enterococcus faecium (VRE). The test is described as follows: Bacterial growth inhibition assay (OD 600). In kind it is cell-based.
Source text: as §1, §2

The subject of the next test is gram-negative pathogens. In words: Bacterial growth inhibition assay, gram-negative pathogen panel. The format is cell-based. The following applies: all bacteria in the gram-negative pathogen panel.
In test [3] the test system is C. difficile 630. The test is described as follows: Electron microscopy (SEM/TEM) after isoalloLCA treatment. In kind it is cell-based, Clostridioides difficile. The settings on record: 8 μM isoalloLCA, 5 hours, WCA medium. As to the method: (§3) FIG. 4C is typical scanning electron microscope images (SEM, left panels) and transmission electron microscope images (TEM, right panels) when C. difficile 630 and VRE were cultured for 5 hours in a WCA medium containing or not containing 8 μM isoalloLCA. The scale bars indicate 1.0 μm (SEM), 200 nm (C. difficile 630 TEM), and 500 nm (VRE TEM). The arrows indicate the shape change after isoalloLCA treatment.
(§4) Bacterial cultures incubated with or without isoalloLCA were collected after 5 hr incubation for electron microscopy samples. For scanning electron microscopy, 10-30 μL of culture was spotted on the Nano percolator membrane (JEOL) and fixed in freshly prepared 2.5% glutaraldehyde solution. After overnight fixation at 4° C., samples were washed in 0.1 M phosphate buffer (pH 7.4, Muto Pure Chemicals), fixed with 1.0% osmium tetroxide (TAAB Laboratories) for 2 hr at 4° C., and treated with a series of increasing concentrations of ethanol. Samples were dried up with critical point dryer (CPD300, Leica Biosystems) and coated with about 2 nm thickness of osmium using a conductive osmium coater (Neoc-ST, Meiwafosis). SEM images were acquired using the SU6600 (Hitachi High Tech) at electron voltage of 5 keV.
(§5) For transmission electron microscopy, microbial pellets were prepared by centrifugation (13,000 rpm, 2 min) from 25 mL bacterial cultures. […]

Another test deals with VRE. Described as above. In kind it is cell-based, Enterococcus faecium. The following applies: 8 μM isoalloLCA, 5 hours, WCA medium. As to the method:
as §3, §4, §5

The test system of test [4] is gram-negative symbiotic bacteria. The test is described as follows: Growth inhibition of intestinal symbiotic bacteria. The format is cell-based. The settings on record: most gram-negative symbiotic bacteria such as Bacteroides; WCA and BHI media.
For test [5], the system named is gram-positive symbiotic bacteria. In words: Growth inhibition of intestinal symbiotic bacteria. The format is cell-based.
Another test concerns Lactobacillus strain. The test is described as follows: Growth inhibition of intestinal symbiotic bacteria. The format is cell-based.
The subject of test [6] is C. sporogenes, C. indolis, and C. HGF2 (innocuum). The test is described as follows: Scanning electron microscopy of symbiotic bacteria. In kind it is cell-based. The following applies: 2.5 μM isoalloLCA, 5 hours, WCA medium. The procedure: FIG. 16B is a set of photographs showing typical results obtained by observing C. difficile 630, C. sporogenes, C. indoli, and C. HGF2 (innocuum) with a scanning electron microscope after culturing for 5 hours in a WCA medium containing control or 2.5 μM isoalloLCA. […] Scale bars indicate 5.0 μm and 1.0 μm. The arrowheads indicate a shape change after isoalloLCA treatment.
as §4

The next test relates to human fecal microbiota. The test is described as follows: Culturing human feces with bile acids, 16S rRNA gene sequencing. The format is cell-based. The settings on record: 50 μM, 48 hr. The procedure:
Human fecal culture was conducted in 96-deep well plates (Treff Lab) using stool samples obtained from young and healthy donors. […] Fecal cultures with a final concentration of 50 μM bile acids (LCA, 3-oxoLCA, and isoalloLCA) were incubated anaerobically for 48 hr at 37° C. DNA was extracted from the fecal sample culture for 16S metagenomic sequencing as described above.
In addition, in order to assess the effects of isoalloLCA on the complex normal intestinal microbiota, human fecal microbiota from young, healthy sample donors were cultured using isoalloLCA, 3-oxoLCA, LCA, or control systems and analyzed for bacterial microbiota changes by 16S rRNA gene sequencing.

Another test has as its system Treg cells. The following applies: reported [30]; cited from earlier work.
Another test concerns T helper 17 (TH17) cells. The following applies: reported [30]; cited from earlier work.
In the next test the test system is Clostridioides difficile. The settings on record: known [36, 40, 41]; cited from earlier work.
For a further test, the target named is estrogen receptor R (ER) (Homo sapiens, UniProt Q92731). The settings on record: reported [63, 64]; cited from earlier work.
Sequence of estrogen receptor R (ER) (Q92731 whole entry): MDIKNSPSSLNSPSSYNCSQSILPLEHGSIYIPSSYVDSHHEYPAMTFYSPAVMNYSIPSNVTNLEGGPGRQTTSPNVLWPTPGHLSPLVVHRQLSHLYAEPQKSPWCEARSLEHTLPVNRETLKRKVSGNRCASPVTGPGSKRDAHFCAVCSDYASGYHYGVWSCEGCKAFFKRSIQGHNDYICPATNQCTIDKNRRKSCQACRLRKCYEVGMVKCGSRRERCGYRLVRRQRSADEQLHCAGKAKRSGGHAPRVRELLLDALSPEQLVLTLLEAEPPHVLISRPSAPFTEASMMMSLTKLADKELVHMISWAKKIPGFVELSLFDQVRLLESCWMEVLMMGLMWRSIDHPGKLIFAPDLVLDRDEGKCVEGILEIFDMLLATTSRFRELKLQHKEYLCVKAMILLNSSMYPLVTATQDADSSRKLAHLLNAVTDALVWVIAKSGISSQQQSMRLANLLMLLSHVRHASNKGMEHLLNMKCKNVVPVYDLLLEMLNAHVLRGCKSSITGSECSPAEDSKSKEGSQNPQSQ
The test system of a further test is prostate cancer cell. The following applies: by reducing E-cadherin expression; reported [63, 64]; cited from earlier work.
Another test addresses T1, androgen receptor (AR) (Homo sapiens, UniProt P10275).
T1 sequence (P10275 1-920): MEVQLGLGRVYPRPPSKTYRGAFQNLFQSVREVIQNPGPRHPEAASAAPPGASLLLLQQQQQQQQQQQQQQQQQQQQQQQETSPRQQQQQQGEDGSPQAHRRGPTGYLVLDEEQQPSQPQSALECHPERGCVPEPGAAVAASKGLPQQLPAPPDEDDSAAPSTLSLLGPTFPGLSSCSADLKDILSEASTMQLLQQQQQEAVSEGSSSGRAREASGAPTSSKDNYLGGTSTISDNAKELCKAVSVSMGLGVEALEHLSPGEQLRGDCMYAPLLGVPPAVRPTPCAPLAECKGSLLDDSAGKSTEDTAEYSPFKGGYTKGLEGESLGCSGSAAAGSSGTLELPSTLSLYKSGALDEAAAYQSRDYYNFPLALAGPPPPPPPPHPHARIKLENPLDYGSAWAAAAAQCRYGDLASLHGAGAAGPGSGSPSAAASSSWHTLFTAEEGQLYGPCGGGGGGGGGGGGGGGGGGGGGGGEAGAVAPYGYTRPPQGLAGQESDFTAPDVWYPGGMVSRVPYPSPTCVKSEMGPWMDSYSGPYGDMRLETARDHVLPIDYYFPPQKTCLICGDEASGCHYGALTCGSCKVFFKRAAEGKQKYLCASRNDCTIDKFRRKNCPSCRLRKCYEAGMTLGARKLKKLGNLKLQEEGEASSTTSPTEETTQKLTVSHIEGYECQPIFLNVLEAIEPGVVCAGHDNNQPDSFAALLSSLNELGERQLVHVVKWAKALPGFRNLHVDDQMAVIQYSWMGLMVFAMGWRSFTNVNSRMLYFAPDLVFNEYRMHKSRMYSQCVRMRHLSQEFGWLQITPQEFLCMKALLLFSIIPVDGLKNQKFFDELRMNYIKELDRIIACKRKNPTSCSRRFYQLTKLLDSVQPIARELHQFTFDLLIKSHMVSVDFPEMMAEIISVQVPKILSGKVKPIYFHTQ
The following applies: reported [28, 63, 64]; cited from earlier work.

Where [7] appears, read: compared to other bile acid compounds.

A value given as a limit tells only on which side of the number the result lay.

For the compound `C[C@H](CCC(=O)O)[C@H]1CC[C@H]2[C@@H]3CC[C@H]4C[C@@H](O)CC[C@]4(C)[C@H]3CC[C@]12C` [isoalloLCA, Iso-allo-lithocholic acid], in the test on C. difficile 630 [1] (WCA medium), the “minimum inhibitory concentration (MIC90) required to prevent growth of 90% or more” value amounted to 2.0 µM. The growth inhibition entry in the test with C. difficile 630 [1] (in vitro, optical density over time) was “strongly inhibited the growth”; in the test with C. difficile VPI10463 it was “Strong growth inhibition”; in [2] it was “Strong growth inhibition”. The “resistant at the highest concentration tested” value in the test on gram-negative pathogens was greater than 50 µM. Besides, the “bactericidal effect, morphological and hyperfine structure changes” value in the test on C. difficile 630 [3] was “bactericidal and results in morphological changes and hyperfine structure changes”; in the test on VRE, “bactericidal and results in morphological changes and hyperfine structure changes”. Besides, the effect on growth entry is listed as “did not significantly affect the growth” in test [4]; “reliably inhibited the growth” in test [5] (WCA and BHI media). Also, the “MIC90 value of the symbiotic strains relative to pathogens” value in test [5] is listed as “generally higher than that of the pathogens”. Further, in test [5] (BHI medium rich in peptone and amino acids), the “resistance of symbiotic strain in BHI medium compared to WCA medium” value is “increased resistance”. Further, in the test on Lactobacillus strain, the “resistance to the inhibitory effect” value is “highly resistant”. For the same compound, the “cell wall structure by scanning electron microscopy” value in test [6] is listed as “cell wall structure of the symbiotic bacteria was maintained”. The “change in gram-negative bacteria (Bacteroides, Alistipes)” value with human fecal microbiota (setting [7]) is on record as “corresponding increase”. Besides, the “change in gram-positive bacteria (Clostridium, Faecalibacterium, Bifidobacterium, Streptococcus)” value in the test on human fecal microbiota (setting [7]) was “more pronounced decrease”. In the test on human fecal microbiota (feces of young healthy donors), the “α-diversity (Shannon index) of fecal culture” value was “not significantly affected”. Also, in the test with human fecal microbiota (phylum level), the bacterial community structure result was “clear widespread change in the bacterial community structure”. In addition, in the test with Treg cells, the Treg cell induction result is on record as “induces Treg cells”.

For the compound `C[C@H](CCC(=O)O)[C@H]1CC[C@H]2[C@@H]3CC[C@@H]4C[C@@H](O)CC[C@]4(C)[C@H]3CC[C@]12C` [isoLCA, Iso-lithocholic acid], the TH17 cell suppression result in the test with T helper 17 (TH17) cells is given as “suppress T helper 17 (TH17) cells”. Besides, in the test on Clostridioides difficile, the “inhibition of growth of Clostridioides difficile” value is reported as “inhibiting the growth”.

As to `C[C@]12CC[C@H](O)C[C@@H]1CC[C@@H]1[C@@H]2CC[C@]2(C)[C@@H](O)CC[C@@H]12` [3β-androstanediol], the estrogen receptor activation entry at estrogen receptor R (ER) is given as “activates estrogen receptor R (ER)”. Further, the “prostate cancer cell migration” value with prostate cancer cell was “inhibits prostate cancer cell migration”. For the same compound, the “binding to AR” value on androgen receptor (AR) is on record as “without binding to AR”.

Consider `C[C@H](CCC(=O)O)[C@H]1CC[C@H]2[C@@H]3CC[C@@H]4CC(=O)CC[C@]4(C)[C@H]3CC[C@]12C` [St 3-oxoLCA, 3-Oxo-lithocholic acid, reference compound], for which the TH17 cell suppression entry in the test on T helper 17 (TH17) cells is on record as “suppress T helper 17 (TH17) cells”.
